This note sets out measurements from patent US20200345725A1, “Methods and Compositions for Treating Cancer” (Omeros Corporation, priority 2019, published 2020).

pIC50: −log10 of the molar value.

The target in the test is GPR174-v38 (Homo sapiens, UniProt Q9BXC1). Briefly: Inhibition of PS-induced GPR174 Gs signaling (GloSensor), HEK293 stably transfected with GPR174-v38. The note with it: PS liposomes 1 μM; for pIC50: GPR174-v38 (compound 59: data not shown), read-out: apparent IC50, inhibition of PS-induced GPR174 Gs signaling. The test is classed as cell-based.

On to `O=C(c1ccccc1)N1CCN(c2cc(N3CCCCC3)c(F)cc2[N+](=O)[O-])CC1` [compound 6], for which the “PS-mediated GPR174 Gs signaling (FIGS. 47B-47F)” value (shortened to “PS-mediated GPR174 Gs signaling”) is given as “inhibited” and the negative-log IC50 (pIC50) was about 7.00. With `O=[N+]([O-])c1cc(F)c(N2CCCCC2)cc1N1CCN(S(=O)(=O)c2ccccc2)CC1` [compound 11], the “PS-mediated GPR174 Gs signaling” value is reported as “inhibited” and the negative-log IC50 (pIC50) was about 7.00. For `Cc1ccccc1Nc1nnc(-c2ccc(C)c(S(N)(=O)=O)c2)c2ccccc12` [compound 20], the “PS-mediated GPR174 Gs signaling” value is “inhibited” and the pIC50 is about 5.52. In the case of `CCOc1ccc(C2C3=C(CCCC3=O)NC3=C2C(=O)c2ccccc23)cc1` (centres unmarked) [compound 23], the “PS-mediated GPR174 Gs signaling” value is given as “inhibited” and the pIC50 was about 6.82. For the molecule `CCOc1ccc(C2C3=C(CCCC3=O)NC3=C2C(=O)c2ccccc23)cc1OCC` (centres unmarked) [compound 30], the “PS-mediated GPR174 Gs signaling” value is “inhibited” and the pIC50 is about 5.89.

For the molecule `S=C(NCc1ccco1)Nc1ccc(I)cc1` [compound 59], the negative logarithm of the IC50 (pIC50) is about 5.00.

A word on the pIC50: it is −log10 of the IC50, conventionally taken in molar units.
